Experimental data from patent US20130324522A1, “INSECT ODORANT RECEPTOR ANTAGONISTS” (THE ROCKEFELLER UNIVERSITY, priority 2010, published 2013).
Like-named read-outs stand apart in the source and are kept apart here.

Molecular target: OR28/OR7 (Anopheles gambiae, UniProt A0A1S4GFY3+Q7QCC7)
Experiment: Ca2+-imaging of stable HEK293T cell line OR28/OR7
Type: cell-based
Details: for inhibition at 4 µM: HEK-293T, read-out: Percent Inhibition OR28 OR7
Protocol: Full-length cDNAs for mosquito (Anopheles gambiae) odorant receptor (OR1, OR2, OR7, OR8, OR28), and fly (Drosophila melanogaster) odorant receptor (Or47a, Or83b), mouse TRP channel (TRPM8), and mouse serotonin receptor (5HT3) were obtained and subcloned into mammalian expression vectors. The following mammalian expression vectors were used:
Stable cell lines OR1/OR7, OR2/OR7, OR8/OR7, OR10/OR7, OR28/OR7 and TRPM8 were generated from HEK293T cells. HEK293T-based cell lines were cultured in DMEM supplemented with these additional antibiotics: 6 μg/mL blasticidin and 1 μg/mL puromycin, with the exception of the TRPM8 cell lines, which was cultured in DMEM supplemented with 1 μg/mL puromycin.
Cells were trypsinized and split into 35 mm dishes one day before transfection. Confluent cells (60-70%) in 35 mm dishes were transfected with 1 μg of insect OR(X) plasmids in pME18s-bla and 1 μg of OR7-pME18s-puro using lipofectamine 2000. For Anopheles odorant receptors, two plasmids were co-transfected into HEK cells: the ligand-specific receptor (OR1, OR2, OR8, OR28) and the corresponding olfactory co-receptor: OR7. Cell lines containing TRPM8 were transfected with single plasmid.
Stable cell lines were cultured in 10 cm dishes, and confluent cells (70-80%) were trypsinized. 10,000 cells/20 μL were transferred into each well of 384-well plates coated with poly-D-lysine, and cultured for 2 days. For Flip-In T-Rex cells (cell lines expressing Or47a/Or83b and 5HT3), 5 μL of tetracycline (5 μg/mL) were added 1 day before the assay. 20 μL of Ca-4 dye was loaded into each well for 1.5 hr at room temperature in the dark, and the dye-loaded plates were subjected to Ca^2+-imaging using a Hamamatsu FDSS6000 real time fluorescence plate reader. Odorant solutions (9× final concentration) were prepared by dissolving 1M stock solutions into Hank's Buffered Salt Solution (HBSS), and 30 μL of odor solution was transferred to each well in 384-well plates.
Compounds ([…] in DMSO) were stored in 384-well plates, and last two columns (32 wells total) contained only DMSO. 200 nL of small compounds were transferred into the odorant plates before the assay using the Perkin-Elmer Janus workstation. The odorant plates were spun down to remove air bubbles, and placed on the FDSS6000 plate loader, and 5 μL of odorant solution was applied to the cell plate on the FDSS6000. Ca^2+ increase was monitored with fluorescence at 525 nm by excitation at 485 nm.

Sequence of OR28/OR7 (A0A1S4GFY3 entry or part of it): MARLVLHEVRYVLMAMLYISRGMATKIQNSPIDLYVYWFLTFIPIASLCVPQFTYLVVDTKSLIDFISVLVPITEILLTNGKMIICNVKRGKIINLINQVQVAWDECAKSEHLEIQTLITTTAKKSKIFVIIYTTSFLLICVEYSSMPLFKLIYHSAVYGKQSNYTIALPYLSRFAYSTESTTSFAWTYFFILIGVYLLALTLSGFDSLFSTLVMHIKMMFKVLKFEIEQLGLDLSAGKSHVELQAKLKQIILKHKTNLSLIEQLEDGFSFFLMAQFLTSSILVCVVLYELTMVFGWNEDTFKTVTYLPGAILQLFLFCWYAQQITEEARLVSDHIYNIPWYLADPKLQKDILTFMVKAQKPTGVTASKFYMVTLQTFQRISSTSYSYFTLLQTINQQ
Sequence of OR28/OR7 (Q7QCC7 whole entry): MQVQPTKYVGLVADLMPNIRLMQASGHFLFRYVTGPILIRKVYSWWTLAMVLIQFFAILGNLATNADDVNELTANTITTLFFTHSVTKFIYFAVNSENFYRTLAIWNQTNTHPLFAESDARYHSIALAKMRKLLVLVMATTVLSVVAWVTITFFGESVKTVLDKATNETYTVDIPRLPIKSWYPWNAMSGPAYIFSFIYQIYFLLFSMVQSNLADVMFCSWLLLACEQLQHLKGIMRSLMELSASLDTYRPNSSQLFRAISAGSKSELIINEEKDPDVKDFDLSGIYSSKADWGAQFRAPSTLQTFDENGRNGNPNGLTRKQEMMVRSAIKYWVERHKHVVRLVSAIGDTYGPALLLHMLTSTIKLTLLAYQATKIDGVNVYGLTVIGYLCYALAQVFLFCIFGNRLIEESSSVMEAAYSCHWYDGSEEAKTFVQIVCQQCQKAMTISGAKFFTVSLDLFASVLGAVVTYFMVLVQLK

Row | Structure (SMILES) | inhibition at 4 µM (compound applied at 4 μM) | IC50 (Table B, read-out: IC50 OR28) | IC50 | inhibition at 4 µM
1 | O=C(CCC1CCN(C(=O)c2cccc(-n3cccn3)c2)CC1)Nc1ccccc1 [RU-0032465] | > 75% | < 100 nM |  | 
2 | Cc1nn(-c2ccc(Cl)cc2)c(C)c1C(=O)NCc1ccccn1 [RU-0048608] | > 75% | < 100 nM |  | 
3 | CCN(CC)c1onc(-c2ccccc2)c1CN(CC1CCCO1)C(=O)c1ccco1 (stereo not shown) [RU-0036855] | > 75% | < 100 nM |  | 
4 | Cc1cccc(NC(=O)CCC2CCN(C(=O)CCOc3ccccc3)CC2)c1 [RU-0030324] | > 75% | < 100 nM |  | 
5 | O=C(c1ccco1)N(Cc1nccn1Cc1ccccc1Cl)CC1CC1 [RU-0047281] | > 75% | < 100 nM |  | 
6 | O=C(NCCC(=O)N1CCOC(COCc2ccc(F)cc2Cl)C1)OCc1ccccc1 (stereo not shown) [RU-0050344] | > 75% | < 100 nM |  | 
7 | C=CCOc1cccc(C(=O)N2CCCC(C(=O)c3ccccc3OC)C2)c1 (stereo not shown) [RU-0029409] | > 75% | < 100 nM |  | 
8 | Cc1ccccc1C(=O)N[C@@H]1CCCCC1NC(=O)C1CCN(C(=O)c2ccc(C(C)(C)C)cc2)CC1 (stereo partly shown) [RU-0045678] | > 75% | < 100 nM |  | 
9 | CCN(CC)C(=O)Oc1ccc2c(ccn2Cc2ccccc2Cl)c1NC(=O)CCCCC(=O)OC [RU-0075446] |  |  | < 100 nM | > 75%
10 | COc1ccccc1CCC(=O)N1CCC(CCC(=O)Nc2ccccc2)CC1 [RU-0032455] | > 75% | < 100 nM |  | 
11 | COCCN(Cc1c(-c2ccccc2)noc1N1CCSCC1)CC(O)COCc1ccco1 (stereo not shown) [RU-0037278] | > 75% | < 100 nM |  | 
12 | CCn1c(C)c(C(=O)CN(CC2CCCO2)C(=O)C2C[C@H]2c2ccccc2)c(C)c1C(=O)OC (stereo partly shown) [RU-0071273] | > 75% | < 100 nM |  | 
13 | Cc1ccccc1C(=O)N[C@@H]1CCCCC1NC(=O)C1CCN(C(=O)C23CC4CC(CC(C4)C2)C3)CC1 (stereo partly shown) [RU-0045351] | > 75% | < 100 nM |  | 
14 | CN(C)c1ccc(C(=O)N2CCOC(COCc3ccccc3F)C2)cc1 (stereo not shown) [RU-0050325] | > 75% | < 100 nM |  | 
15 | N#Cc1ccccc1C(=O)N1CCOC(COCc2c(Cl)cccc2Cl)C1 (stereo not shown) [RU-0050405] | > 75% | < 100 nM |  | 
16 | CCN(CC)C(=O)Oc1ccc2c(ccn2Cc2ccc(Cl)cc2)c1NC(=O)C1CC1 [RU-0075475] |  |  | > 1000 nM | > 75%
17 | Cc1ccc(-c2nnc(SCCCC(=O)N3CCN(C(=O)c4cccc(F)c4)C(C)C3)n2-c2ccc(C)cc2)cc1 (stereo not shown) [RU-0071789] | > 75% | < 100 nM |  | 
18 | Cc1c(C(=O)NCc2ccco2)cnn1-c1ccccc1 [RU-0047765] | > 75% | < 100 nM |  | 
19 | CCOC(=O)C1CCCN(C(=O)c2csc(CSc3nnc(-c4cccc(OC)c4)n3-c3ccc(C)cc3)n2)C1 (stereo not shown) [RU-0071628] | > 75% | < 100 nM |  | 
20 | COc1ccccc1C(=O)C1CCCN(C(=O)c2cccc(N3CCOCC3)c2)C1 (stereo not shown) [RU-0029350] | > 75% | 100 to 1000 nM |  | 
21 | Cc1ccccc1C(=O)N[C@@H]1CCCCC1NC(=O)C1CCCN(S(=O)(=O)c2cc(Cl)ccc2Cl)C1 (stereo partly shown) [RU-0045691] | > 75% | < 100 nM |  | 
22 | CCc1c(C(=O)NCc2cccnc2)cnn1-c1ccccc1 [RU-0048504] | > 75% | < 100 nM |  | 
23 | COCCNC(=O)c1ccc(CSc2nnc(-c3ccc(C)cc3)n2-c2ccccc2C)cc1 [RU-0053556] | > 75% | 100 to 1000 nM |  | 
24 | CCN(CC)c1onc(-c2ccccc2)c1CN(CC1CCCO1)C(=O)c1ccc2c(c1)OCO2 (stereo not shown) [RU-0036875] | > 75% | < 100 nM |  | 
25 | COc1ccc(-n2c(Cc3ccccc3)nnc2SCCCC(=O)N2CCN(C(=O)c3ccc(C(F)(F)F)cc3)C(C)C2)cc1 (stereo not shown) [RU-0071828] | > 75% | < 100 nM |  | 
26 | c1ccc(CNc2nc(NCc3ccco3)nc(N3CCOCC3)n2)cc1 [RU-0020050] | > 75% | 100 to 1000 nM |  | 
27 | C=CCN(Cc1nccn1Cc1ccc(Cl)c(Cl)c1)C(=O)c1ccccc1F [RU-0047955] | > 75% | < 100 nM |  | 
28 | O=C(C1CCC1)N(Cc1ccco1)Cc1nccn1Cc1ccccc1Cl [RU-0048066] | > 75% | < 100 nM |  | 
29 | CCc1cc(N2CCCC2)nc(SCc2ccc(C(=O)N3CCOCC3)o2)n1 [RU-0047568] | > 75% | < 100 nM |  | 
